Results reported in ChEMBL document CHEMBL1128526, “Conformational effects on retinoid receptor selectivity. 2. Effects of retinoid bridging group on retinoid X receptor activity and selectivity” (J Med Chem, 1995).
Where “and” joins values, the source holds several entries; their conditions need not be identical. Equal values may be shown once.

Tests used:
[1] = molecular target: T1, Retinoic acid receptor RXR-alpha (Homo sapiens, UniProt P19793); assay: Effective concentration against Retinoic acid receptor RXR-alpha
T1 sequence (P19793 whole entry): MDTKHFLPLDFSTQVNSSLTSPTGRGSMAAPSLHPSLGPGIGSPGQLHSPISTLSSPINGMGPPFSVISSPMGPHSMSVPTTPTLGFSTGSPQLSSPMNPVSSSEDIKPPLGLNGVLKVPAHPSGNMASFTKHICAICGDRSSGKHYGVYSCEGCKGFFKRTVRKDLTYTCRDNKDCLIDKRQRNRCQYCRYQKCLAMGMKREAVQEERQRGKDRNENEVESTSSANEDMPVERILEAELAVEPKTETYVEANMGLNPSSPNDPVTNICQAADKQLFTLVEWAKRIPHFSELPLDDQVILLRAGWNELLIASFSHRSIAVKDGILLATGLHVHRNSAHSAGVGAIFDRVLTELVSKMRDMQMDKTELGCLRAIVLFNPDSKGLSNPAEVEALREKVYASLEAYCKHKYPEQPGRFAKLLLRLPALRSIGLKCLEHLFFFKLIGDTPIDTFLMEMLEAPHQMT

[2] = molecular target: T2, Retinoic acid receptor RXR-gamma (Homo sapiens, UniProt P48443); assay: Effective concentrations against Retinoic acid receptor RXR-gamma
T2 sequence (P48443 whole entry): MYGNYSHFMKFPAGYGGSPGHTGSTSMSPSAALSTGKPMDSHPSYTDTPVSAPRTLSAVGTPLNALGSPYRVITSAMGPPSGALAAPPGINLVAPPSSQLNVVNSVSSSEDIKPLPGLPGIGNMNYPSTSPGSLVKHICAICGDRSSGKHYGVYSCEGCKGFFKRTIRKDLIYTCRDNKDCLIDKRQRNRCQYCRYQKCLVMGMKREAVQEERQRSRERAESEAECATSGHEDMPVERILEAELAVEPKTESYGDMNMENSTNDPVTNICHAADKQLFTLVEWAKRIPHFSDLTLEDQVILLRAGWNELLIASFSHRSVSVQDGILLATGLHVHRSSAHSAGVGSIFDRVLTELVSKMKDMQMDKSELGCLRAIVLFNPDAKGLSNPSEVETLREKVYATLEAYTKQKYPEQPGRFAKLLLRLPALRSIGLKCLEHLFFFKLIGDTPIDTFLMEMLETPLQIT

[3] = molecular target: T3, Retinoic acid receptor RXR-beta (Homo sapiens, UniProt P28702); assay: Effective concentrations against Retinoic acid receptor RXR-beta
T3 sequence (P28702 whole entry): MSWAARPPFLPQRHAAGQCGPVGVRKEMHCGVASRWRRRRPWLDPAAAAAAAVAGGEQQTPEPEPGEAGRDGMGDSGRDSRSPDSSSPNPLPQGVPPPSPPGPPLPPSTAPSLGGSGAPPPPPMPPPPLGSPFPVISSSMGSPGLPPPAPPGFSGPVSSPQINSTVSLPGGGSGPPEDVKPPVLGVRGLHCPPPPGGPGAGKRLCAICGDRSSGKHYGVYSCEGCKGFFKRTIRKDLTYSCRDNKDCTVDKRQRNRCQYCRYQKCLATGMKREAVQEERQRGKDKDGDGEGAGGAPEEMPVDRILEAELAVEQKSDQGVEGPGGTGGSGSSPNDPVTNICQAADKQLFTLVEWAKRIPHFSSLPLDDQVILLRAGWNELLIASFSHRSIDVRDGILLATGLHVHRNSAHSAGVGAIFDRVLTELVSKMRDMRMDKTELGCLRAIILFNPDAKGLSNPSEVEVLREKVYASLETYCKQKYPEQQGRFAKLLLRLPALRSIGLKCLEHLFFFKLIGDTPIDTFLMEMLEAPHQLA

[4] = molecular target: T3, Retinoic acid receptor RXR-beta; assay: Effective concentrations against Retinoid X receptor RXR beta

Structure (SMILES) | EC50 [1] | EC50 [2] [nM] | EC50 [3] [nM] | EC50 [4] [nM]
C=C(c1ccc(C(=O)O)cc1)c1ccc2c(c1)C(C)(C)CCC2(C)C | 270 nM | – | – | –
CC1(C)CCC(C)(C)c2cc(C3(c4ccc(C(=O)O)cc4)SCCS3)ccc21 | 170 nM | – | – | –
CC1(C)CCC(C)(C)c2cc(C(O)c3ccc(C(=O)O)cc3)ccc21 (configuration not stated) | 2900 nM | – | – | –
CC(c1ccc(C(=O)O)cc1)c1ccc2c(c1)C(C)(C)CCC2(C)C (configuration not stated) | 300 nM | – | – | –
CC1(C)CCC(C)(C)c2cc(C3(c4ccc(C(=O)O)cc4)OCCO3)ccc21 | 34 nM | – | – | –
Cc1cc2c(cc1C(=O)c1ccc(C(=O)O)s1)C(C)(C)CCC2(C)C | 2200 nM | 300 | 1000 | –
C=C(c1ccc(C(=O)O)s1)c1cc2c(cc1C)C(C)(C)CCC2(C)C | 330 nM | 520 | 33 | –
CC1(C)CCC(C)(C)c2cc(C(C)(C)c3ccc(C(=O)O)cc3)ccc21 | 3100 nM | – | – | –
CC1(C)CCC(C)(C)c2cc(Oc3ccc(C(=O)O)cc3)ccc21 | 2500 nM | 530 | 1900 | –
CC(C)=C(c1ccc(C(=O)O)cc1)c1ccc2c(c1)C(C)(C)CCC2(C)C | 86 nM | – | – | –
C/C=C(\c1ccc(C(=O)O)cc1)c1ccc2c(c1)C(C)(C)CCC2(C)C | 2500 nM | – | – | –
CC(C)=C(/C=C/C(C)=C/C(=O)O)c1ccc2c(c1)C(C)(C)CCC2(C)C | 380 nM | – | – | –
CC(/C=C/C1(c2cc3c(cc2C)C(C)(C)CCC3(C)C)OCCO1)=C\C(=O)O | 21 nM | 2300 | – | 47
CC1(C)CCC(C)(C)c2cc(C3(c4ccc(C(=O)O)cc4)CC3)ccc21 | 55 nM | – | – | –
CC1(C)CCC(C)(C)c2cc(C3(c4ccc(C(=O)O)cc4)SCCCS3)ccc21 | 630 nM and 540 nM | – | – | –
CC1(C)CCC(C)(C)c2cc(C3(c4ccc(C(=O)O)cc4)OCCCO3)ccc21 | 750 nM and 1200 nM | – | – | –
CC1(C)CCC(C)(C)c2cc(C3(c4ccc(C(=O)O)cc4)OCCS3)ccc21 (configuration not stated) | 74 nM | – | – | –
CC1(C)CCC(C)(C)c2cc(Cc3ccc(C(=O)O)cc3)ccc21 | 2500 nM | 2000 | 2700 | –
CC(C)=C(/C=C/C(C)=C/C(=O)O)c1cc2c(cc1C)C(C)(C)CCC2(C)C | 200 nM | – | – | –
C/C=C(/c1ccc(C(=O)O)cc1)c1ccc2c(c1)C(C)(C)CCC2(C)C | 55 nM and 470 nM | 370 | 160 | –
